The record followed here is patent US12421253B2 (Mirati Therapeutics, Inc., priority 2020, dated 2025).

For one test, the target named is T1, KRas^G12D (Homo sapiens, UniProt P01116, G12D).
T1 construct: […]; biotin (biotinylated); purchased Accelegan Inc
In words: KRas binding assay (TR-FRET displacement of Cy5 labelled tracer).

For another test, the target named is T2, KRas^G12A (Homo sapiens, UniProt P01116, G12A).
T2 construct: […]; biotin (biotinylated); purchased Accelegan Inc
The description is as above.

For another test, the target named is T3, KRas^G12S (Homo sapiens, UniProt P01116, G12S).
T3 construct: […]; biotin (biotinylated); purchased Accelegan Inc
The test is described as above.

The target in a further test is T4, KRas^G12V (Homo sapiens, UniProt P01116, G12V).
T4 construct: […]; biotin (biotinylated); purchased Accelegan Inc
The description is as above.

The target in the next test is KRas^G12C (Homo sapiens, UniProt P01116, G12C). In words: biochemical.
The target in a further test is KRas^G13D (Homo sapiens, UniProt P01116, G13D). In words: biochemical.
The next test has as its target T5, KRas^WT (Homo sapiens, UniProt P01116).
T5 construct: […]; biotin (biotinylated); purchased Accelegan Inc
The test can be described thus: KRas binding assay (TR-FRET displacement of Cy5 labelled tracer). On the technique in general: Time-resolved FRET reads energy transfer from a long-lived donor to a nearby acceptor.

The next test concerns the target KRas^Q61H (Homo sapiens, UniProt P01116, Q61H). In words: biochemical.
For a further test, the target named is T6, KRas^G12R (Homo sapiens, UniProt P01116, G12R).
T6 construct: […]; biotin (biotinylated); purchased Accelegan Inc
The test can be described thus: KRas binding assay (TR-FRET displacement of Cy5 labelled tracer).

T4 sequence (P01116 1-169 isoform P01116-2 G12V): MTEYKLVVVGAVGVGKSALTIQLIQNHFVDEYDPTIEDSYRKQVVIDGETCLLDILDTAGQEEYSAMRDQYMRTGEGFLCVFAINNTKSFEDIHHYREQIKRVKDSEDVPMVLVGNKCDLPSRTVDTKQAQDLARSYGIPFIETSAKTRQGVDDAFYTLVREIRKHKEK
T1 sequence (P01116 1-169 isoform P01116-2 G12D): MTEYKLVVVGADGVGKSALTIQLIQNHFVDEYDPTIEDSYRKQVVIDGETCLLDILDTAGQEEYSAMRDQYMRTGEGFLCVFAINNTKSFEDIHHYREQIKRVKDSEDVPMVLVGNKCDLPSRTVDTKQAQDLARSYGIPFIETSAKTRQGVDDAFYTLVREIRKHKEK
Chain of KRas^G13D (P01116 1-169 isoform P01116-2 G13D): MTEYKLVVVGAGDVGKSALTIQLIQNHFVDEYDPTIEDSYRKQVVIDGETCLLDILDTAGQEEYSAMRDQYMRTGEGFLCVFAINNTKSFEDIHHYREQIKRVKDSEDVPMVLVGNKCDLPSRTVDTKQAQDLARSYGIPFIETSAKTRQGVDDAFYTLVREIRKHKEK
T6 sequence (P01116 1-169 isoform P01116-2 G12R): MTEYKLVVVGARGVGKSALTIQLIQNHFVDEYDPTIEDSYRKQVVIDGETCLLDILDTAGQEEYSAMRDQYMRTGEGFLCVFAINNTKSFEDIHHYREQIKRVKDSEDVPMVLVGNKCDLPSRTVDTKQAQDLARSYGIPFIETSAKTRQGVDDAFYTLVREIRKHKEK
T3 sequence (P01116 1-169 isoform P01116-2 G12S): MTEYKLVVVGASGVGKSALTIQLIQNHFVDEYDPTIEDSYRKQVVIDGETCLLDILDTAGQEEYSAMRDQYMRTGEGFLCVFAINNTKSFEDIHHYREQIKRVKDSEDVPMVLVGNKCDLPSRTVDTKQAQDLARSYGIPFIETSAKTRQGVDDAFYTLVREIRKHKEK
T2 sequence (P01116 1-169 isoform P01116-2 G12A): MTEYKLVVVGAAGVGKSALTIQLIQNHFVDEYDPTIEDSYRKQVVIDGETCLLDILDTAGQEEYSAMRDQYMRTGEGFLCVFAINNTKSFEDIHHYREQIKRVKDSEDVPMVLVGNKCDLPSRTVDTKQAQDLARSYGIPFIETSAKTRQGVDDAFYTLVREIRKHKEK
Chain of KRas^G12C (P01116 1-169 isoform P01116-2 G12C): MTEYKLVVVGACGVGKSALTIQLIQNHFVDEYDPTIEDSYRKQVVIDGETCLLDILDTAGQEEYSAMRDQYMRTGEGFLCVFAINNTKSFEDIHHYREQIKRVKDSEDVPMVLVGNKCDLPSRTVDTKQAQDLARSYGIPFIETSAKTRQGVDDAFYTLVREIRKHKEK
Chain of KRas^Q61H (P01116 1-169 isoform P01116-2 Q61H): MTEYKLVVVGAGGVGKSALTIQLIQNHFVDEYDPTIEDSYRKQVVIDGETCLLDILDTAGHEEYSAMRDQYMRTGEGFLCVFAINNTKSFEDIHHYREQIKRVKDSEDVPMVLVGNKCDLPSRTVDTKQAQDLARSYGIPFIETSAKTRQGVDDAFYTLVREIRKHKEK
T5 sequence (P01116 1-169 isoform P01116-2): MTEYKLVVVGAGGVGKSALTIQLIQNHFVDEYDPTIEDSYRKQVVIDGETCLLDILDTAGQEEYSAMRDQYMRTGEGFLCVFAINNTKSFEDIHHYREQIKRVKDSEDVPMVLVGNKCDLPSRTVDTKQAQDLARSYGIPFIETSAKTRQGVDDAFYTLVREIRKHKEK
Method for KRas^G12A: (§1) The ability of a compound to bind to KRas was measured using a TR-FRET displacement assay. […] After a 60-minute incubation at room temperature, the reaction was measured using a BMG LABTECH CLARIO star Plus via TR-FRET. […] The POC values were fit to a 4-parameter IC50 equation and the IC50 value reported.
Method for KRas^G12C: as §1
Method for KRas^G12D: as §1
Method for KRas^G12R: as §1
Method for KRas^G12S: as §1
Method for KRas^G12V: as §1
Method for KRas^G13D: as §1
Method for KRas^Q61H: as §1
Method for KRas^WT: as §1

As for `CCc1cccc2cccc(N3CCc4c(nc(OCC56CCCN5CCC6)nc4NCc4nnc(N)o4)C3)c12` [Example 136, 5-(((7-(8-ethylnaphthalen-1-yl)-2-((tetrahydro-1H-pyrrolizin-7a(5H)-yl)methoxy)-5,6,7,8-tetrahydropyrido[3,4-d]pyrimidin-4-yl)amino)methyl)-1,3,4-oxadiazol-2-amine], the IC50 (commonly the concentration that gives 50% inhibition) on KRas^G12D amounted to 3390 nM; on KRas^G12A, 1540 nM; on KRas^G12S, 1990 nM; at KRas^G12V, 868 nM; at KRas^G12C, 969 nM; on KRas^G13D, 3280 nM. In addition, the half-maximal inhibitory concentration (IC50) on KRas^WT amounted to 1560 nM; against KRas^Q61H, 2300 nM; at KRas^G12R, 1630 nM.

Consider `CCc1cccc2cccc(N3CCc4c(nc(OCC56CCCN5CCC6)nc4N4CCCC(N5CCCC5=O)C4)C3)c12` (stereo not drawn) [Example 137, 1-(1-(7-(8-ethylnaphthalen-1-yl)-2-((tetrahydro-1H-pyrrolizin-7a(5H)-yl)methoxy)-5,6,7,8-tetrahydropyrido[3,4-d]pyrimidin-4-yl)piperidin-3-yl)pyrrolidin-2-one], for which the IC50 is 3240 nM at KRas^G12D; 948 nM on KRas^G12A; 1080 nM on KRas^G12S; 1470 nM at KRas^G12V; 1030 nM on KRas^G12C; 1350 nM against KRas^G13D. Also, the values for the IC50 on KRas^WT, against KRas^Q61H and at KRas^G12R were 1660 nM, 1470 nM and 1140 nM, respectively.

Take `CCc1cccc2cccc(N3CCc4c(nc(OCC56CCCN5CCC6)nc4Nc4cnn(CC(N)=O)c4)C3)c12` [Example 139, 2-(4-((7-(8-ethylnaphthalen-1-yl)-2-((tetrahydro-1H-pyrrolizin-7a(5H)-yl)methoxy)-5,6,7,8-tetrahydropyrido[3,4-d]pyrimidin-4-yl)amino)-1H-pyrazol-1-yl)acetamide]: the concentration for half-maximal inhibition (IC50) worked out at 12400 nM at KRas^G12D; 2540 nM on KRas^G12A; 2830 nM at KRas^G12S; 1170 nM at KRas^G12V; 1490 nM at KRas^G12C; 5440 nM against KRas^G13D. Further, the IC50 at KRas^WT is 3480 nM; at KRas^Q61H it was 4580 nM; on KRas^G12R, 1410 nM.

In the case of `CCc1cccc2cccc(N3CCc4c(nc(OCC56CCCN5CCC6)nc4N4CCCC(c5nc(C)c(C(=O)NC6CCC6)o5)C4)C3)c12` (stereo not drawn) [Example 140, N-cyclobutyl-2-(1-(7-(8-ethylnaphthalen-1-yl)-2-((tetrahydro-1H-pyrrolizin-7a(5H)-yl)methoxy)-5,6,7,8-tetrahydropyrido[3,4-d]pyrimidin-4-yl)piperidin-3-yl)-4-methyloxazole-5-carboxamide], the half-inhibitory concentration (IC50) at KRas^G12D is 5210 nM; at KRas^G12A, 1660 nM; on KRas^G12S, 2000 nM; at KRas^G12V, 2380 nM; on KRas^G12C, 1180 nM; at KRas^G13D, 1760 nM. In addition, the half-inhibitory concentration (IC50) at KRas^WT is 1920 nM; against KRas^Q61H, 2230 nM; at KRas^G12R, 1440 nM.

Turning to `CCc1cccc2cccc(N3CCc4c(nc(OCC56CCCN5CCC6)nc4N4CC[C@H]5C(=O)NC[C@H]5C4)C3)c12` [Example 141, (3aS,7aR)-5-(7-(8-ethylnaphthalen-1-yl)-2-((tetrahydro-1H-pyrrolizin-7a(5H)-yl)methoxy)-5,6,7,8-tetrahydropyrido[3,4-d]pyrimidin-4-yl)octahydro-1H-pyrrolo[3,4-c]pyridin-1-one], the IC50 at KRas^G12D turned out to be 8520 nM; at KRas^G12A it was 2950 nM; at KRas^G12S it was 2490 nM; at KRas^G12V, 1260 nM; against KRas^G12C, 2300 nM; at KRas^G13D, 1200 nM. Further, the values for the half-inhibitory concentration (IC50) on KRas^WT, on KRas^Q61H and at KRas^G12R were 1620 nM, 1610 nM and 1640 nM, respectively.

As to `CCc1cccc2cccc(N3CCc4c(nc(OCC56CCCN5CCC6)nc4NCc4cccnc4-n4cncn4)C3)c12` [Example 142, N-((2-(1H-1,2,4-triazol-1-yl)pyridin-3-yl)methyl)-7-(8-ethylnaphthalen-1-yl)-2-((tetrahydro-1H-pyrrolizin-7a(5H)-yl)methoxy)-5,6,7,8-tetrahydropyrido[3,4-d]pyrimidin-4-amine], the concentration for half-maximal inhibition (IC50) was found to be 10500 nM on KRas^G12D; 2320 nM on KRas^G12A; 1870 nM at KRas^G12S; 1380 nM at KRas^G12V; 1250 nM at KRas^G12C; 13100 nM at KRas^G13D. Besides, the IC50 on KRas^WT is 7520 nM; against KRas^Q61H, 7250 nM; on KRas^G12R, 1720 nM.

`CCc1cccc2cccc(N3CCc4c(nc(OCC56CCCN5CCC6)nc4N4CCCC(c5n[nH]cc5NC(C)=O)C4)C3)c12` (stereo not drawn) [Example 143, N-(3-(1-(7-(8-ethylnaphthalen-1-yl)-2-((tetrahydro-1H-pyrrolizin-7a(5H)-yl)methoxy)-5,6,7,8-tetrahydropyrido[3,4-d]pyrimidin-4-yl)piperidin-3-yl)-1H-pyrazol-4-yl)acetamide]: the IC50 at KRas^G12D came out at 5920 nM; on KRas^G12A it was 2230 nM; on KRas^G12S, 2470 nM; at KRas^G12V, 4150 nM; at KRas^G12C it was 1920 nM; against KRas^G13D, 1320 nM. The concentration for half-maximal inhibition (IC50) on KRas^WT came out at 2050 nM; at KRas^Q61H, 1250 nM; on KRas^G12R it was 2010 nM.

Take `CCc1cccc2cccc(N3CCc4c(nc(OCC56CCCN5CCC6)nc4N4CCn5ncc(S(C)(=O)=O)c5C4)C3)c12` [Example 144, 7-(8-ethylnaphthalen-1-yl)-4-(3-(methylsulfonyl)-6,7-dihydropyrazolo[1,5-a]pyrazin-5(4H)-yl)-2-((tetrahydro-1H-pyrrolizin-7a(5H)-yl)methoxy)-5,6,7,8-tetrahydropyrido[3,4-d]pyrimidine]: the half-inhibitory concentration (IC50) at KRas^G12D was 1260 nM; on KRas^G12A, 8490 nM; on KRas^G12S it was 5680 nM; on KRas^G12V, 6280 nM; on KRas^G12C, 4980 nM; on KRas^G13D it was 10100 nM. Further, the IC50 at KRas^WT was 7510 nM; on KRas^Q61H, 10600 nM; on KRas^G12R, 11100 nM.

`CCc1cccc2cccc(N3CCc4c(nc(OCC56CCCN5CCC6)nc4NC4CN(C(N)=O)C4)C3)c12` [Example 147, 3-((7-(8-ethylnaphthalen-1-yl)-2-((tetrahydro-1H-pyrrolizin-7a(5H)-yl)methoxy)-5,6,7,8-tetrahydropyrido[3,4-d]pyrimidin-4-yl)amino)azetidine-1-carboxamide]: the concentration for half-maximal inhibition (IC50) at KRas^G12D is 1320 nM; on KRas^G12A, 2710 nM; at KRas^G12S, 2150 nM; on KRas^G12V, 1450 nM; at KRas^G12C it was 1650 nM; on KRas^G13D, 3630 nM. Besides, the figures for the IC50 on KRas^WT, against KRas^Q61H and on KRas^G12R were 2450 nM, 3210 nM and 1490 nM, respectively.

For the molecule `CCc1cccc2cccc(N3CCc4c(nc(OCC56CCCN5CCC6)nc4NC[C@H]4CCC(=O)N4)C3)c12` [Example 148, (R)-5-(((7-(8-ethylnaphthalen-1-yl)-2-((tetrahydro-1H-pyrrolizin-7a(5H)-yl)methoxy)-5,6,7,8-tetrahydropyrido[3,4-d]pyrimidin-4-yl)amino)methyl)pyrrolidin-2-one], the concentration for half-maximal inhibition (IC50) on KRas^G12D amounted to 7620 nM; on KRas^G12A, 3240 nM; on KRas^G12S, 2900 nM; at KRas^G12V, 1350 nM; at KRas^G12C it was 3070 nM; on KRas^G13D, 7150 nM. The results for the IC50 at KRas^WT, against KRas^Q61H and on KRas^G12R were 7310 nM, 7800 nM and 4350 nM, respectively.
